The target of one assay is T1, USP9X/USP24 chimera (Homo sapiens, UniProt Q93008, A1766S/D1761E/K1759R/L1762V/Y1757F).
T1 construct: His/SUMO (pOPIN-S vector) (N, cleaved yes); made in house; host or cells: E. coli BL21
In words: Ub-Rho cleavage assay, USP9X/USP24 chimera. Format: biochemical. From the text: An expression construct for the USP9X catalytic domain (aa 1551–1970, […]: Q93008-1), was codon optimised for bacterial expression, synthesised in gBlock format (Integrated DNA Technologies) and cloned into the pOPIN-S vector (Berrow et al, [2007]), which was digested with KpnI and HindIII using In-Fusion™ HD cloning (Takara Clontech). […] For the USP9X Δβ catalytic domain a deletion construct ΔE1924-K1943 and for USP9X/USP24 chimera, a construct with USP9X Y1757-A1766 replaced with the USP24 (NCBI Reference Sequence: NP_056121) aa motif […] was used. All constructs were confirmed by Sanger sequencing (AGRF).
The reaction was stopped through the addition of 10 mM citric acid. The assay was performed in 384-well format with a total reaction volume of 16 µL. Data was collected using the ClarioSTAR plate reader (BMG Labtech) at an emission of 535 nm. […] IC50 values presented in our study are the mean of three independent biological repeats unless indicated otherwise.

Another assay concerns the target T2, USP9X catalytic domain (Homo sapiens, UniProt Q93008).
T2 construct: His/SUMO (pOPIN-S vector) (N, cleaved yes); made in house; host or cells: E. coli BL21
T2 sequence (Q93008 1551-1970): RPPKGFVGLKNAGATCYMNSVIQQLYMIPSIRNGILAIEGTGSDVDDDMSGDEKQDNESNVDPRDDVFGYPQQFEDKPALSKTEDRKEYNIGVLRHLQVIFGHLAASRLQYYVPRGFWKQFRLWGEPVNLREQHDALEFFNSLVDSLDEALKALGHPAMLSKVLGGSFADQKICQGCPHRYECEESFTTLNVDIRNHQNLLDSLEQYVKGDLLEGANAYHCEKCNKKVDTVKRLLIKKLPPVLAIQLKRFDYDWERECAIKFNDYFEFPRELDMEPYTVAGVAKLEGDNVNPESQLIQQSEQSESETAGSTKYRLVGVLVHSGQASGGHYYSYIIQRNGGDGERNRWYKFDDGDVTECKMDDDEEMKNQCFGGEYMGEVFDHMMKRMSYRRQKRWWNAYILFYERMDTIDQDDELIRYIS
In words: K48-linked di-ubiquitin cleavage assay. Conditions: 50 µM compound. Format: biochemical. On the procedure:
For inhibitor activity assays, USP9X catalytic domain (di-ubiquitin cleavage assay: 750 nM, ubiquitin-probe assays: 2.5 µM) was pre-incubated with USP9X inhibitors for 30 min at ambient temperature and subsequently mixed with di-ubiquitin (final concentration 2 µM) in assay buffer (25 mM Tris [pH 8.0], 150 mM NaCl, 10 mM DTT) at pH 8.0 or was mixed with ubiquitin-propargylamide (Ub-PA)/ubiquitin-vinyl sulfonate (Ub-VS) probes at a final concentration of 10 µM in assay buffer. For both assays, the mixture was incubated over a time course, and the reaction was stopped by mixing samples with 2× LDS sample buffer (Invitrogen) supplemented with 3% (v/v) 2-mercaptoethanol. All protein samples were run on a 4–12% Bis-Tris SDS-PAGE gradient gel (Invitrogen) for 60 min at 140 V. The gel was stained with InstantBlue® (Abcam) and imaged.

For a further assay, the system named is T3, USP24.
T3 construct: endogenous in cells; host or cells: MCF-7 cell lysate
In words: DUB IP-MS in MCF-7 cell lysates, USP24. The format is biochemical, human. Particulars: 50 µM. The method, then:
MCF-7 cells have been profiled for active DUBs previously (Pinto-Fernández et al, [2019]). Lysates were generated as described by others (Turnbull et al, [2017]) using 30 s freeze-thaw cycles (thrice) in lysis buffer (50 mM Tris [pH 7.4], 5 mM MgCl2 × 6 H2O, 0.5 mM EDTA [pH 8.0], 250 mM sucrose and 1 mM DTT) at pH 7.5. […] A pre-treatment of cell lysates with 0.5 µg Ub-VS was included for a baseline DUB response to the Ub-VS probe. 0.1 µg 3X-FLAG-Ub-VS probe was added to samples and incubated for 5 min at 37 °C. […] Samples were washed thrice with lysis buffer and eluted from the resin with lysis buffer supplemented with 1% (w/v) SDS following a 10 min incubation. Two consecutive elutions were pooled, and samples were stored at −80 °C until processing.
DNA was hydrolysed with the addition of 2 µL neat TFA, and lysates were neutralised to pH 8.5 by the addition of 1 M Tris-HCl as previously described (Dagley et al, [2019]). Protein concentration was determined using Pierce™ BCA Protein Assay Kit (Thermo Fisher Scientific) following the manufacturer’s instructions. For DUB IP-MS, samples were processed using S-Trap spin columns (Profiti) by following the manufacturer’s instructions. […]

The test system of the next assay is lymphoma line SR. In words: NCI-60 cancer cell panel, SR. The format is cell-based, human. Particulars: 10 µM, 3 days. On the procedure:
Inhibitors were tested at 10 µM. Data shown is the mean of two technical replicates and is shown relative to the no-drug control, and relative to the time zero number of cells.

The subject of a further assay is SK-MEL-2 cells. In words: Colony formation assay, SK-MEL-2. Format: cell-based, human. Conditions: 10 µM, 7–12 days. On the procedure: (§1) Cells were seeded at low density (200–4000 cells per well) after initial optimisation in a six-well tissue culture-treated plate (Falcon). Twenty-four hours post seeding, media was replaced, and the inhibitor was added. Cells were left to grow into colonies between 7 and 12 days, depending on the cell line. For analysis, the media was removed, and the cells were fixed with 10% (w/v) formalin for 10 min. Colonies were stained with crystal violet (Sigma-Aldrich, 0.5% [w/v] in 20% [v/v] MeOH) for 10 min and washed thrice with distilled H2O. Plates were imaged using the ChemiDoc imaging system (Bio-Rad) and analysed using the ImageJ ColonyArea plugin as described previously (Guzmán et al, [2014]).

The next assay relates to MDA-MB-231 cells. In words: Colony formation assay, MDA-MB-231. Format: cell-based, human. Particulars: 10 µM, 7–12 days. On the procedure: as §1
The next assay concerns ACHN cells. In words: Colony formation assay, ACHN. The format is cell-based, human. Conditions: 10 µM, 7–12 days. The method, then: as §1
For another assay, the system named is HUVEC. In words: Colony formation assay, HUVEC. The format is cell-based, human. Particulars: 10 µM, 7–12 days. The method, then: as §1
In another assay the test system is HDFs. In words: Colony formation assay, HDF. Format: cell-based, human. Conditions: 10 µM, 7–12 days. The method, then:
as §1

“Also recorded” adds a separate entry of the source.

T1 sequence (Q93008 1551-1970 Y1757F/K1759R/D1761E/L1762V/A1766S): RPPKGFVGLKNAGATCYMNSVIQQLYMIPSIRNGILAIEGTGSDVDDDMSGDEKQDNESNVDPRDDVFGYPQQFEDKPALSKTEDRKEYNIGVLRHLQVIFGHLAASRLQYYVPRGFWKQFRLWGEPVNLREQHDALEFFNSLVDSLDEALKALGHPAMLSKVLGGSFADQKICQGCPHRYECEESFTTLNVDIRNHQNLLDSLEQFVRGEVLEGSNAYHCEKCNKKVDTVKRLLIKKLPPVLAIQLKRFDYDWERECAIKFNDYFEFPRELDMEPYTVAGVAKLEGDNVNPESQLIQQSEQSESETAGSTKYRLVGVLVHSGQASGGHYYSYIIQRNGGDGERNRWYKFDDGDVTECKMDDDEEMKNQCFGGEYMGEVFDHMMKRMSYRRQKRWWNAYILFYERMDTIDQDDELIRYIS

Take `Cc1[nH]c2ccc(C(=O)N3CCN(S(=O)(=O)c4ccc5c(c4)OCCO5)CC3)cc2c1C` [WEHI-092]: the “activity of USP9X/USP24 chimera in presence of compound” value on USP9X/USP24 chimera is reported as “remained fully active at concentrations up to 10 µM; also recorded: no longer inhibited”. Besides, the “cleavage of K48-linked di-ubiquitin” value on USP9X catalytic domain is listed as “inhibited cleavage of K48-linked di-ubiquitin”. For the same molecule, in the assay on USP24, the “inhibition of USP24 in cell lysates (DUB IP-MS)” value is recorded as “not inhibited”. For the same molecule, the “cell killing, SR” value in the assay on lymphoma line SR is “cell death”. Further, the “clonogenic potential, SK-MEL-2” value in the assay on SK-MEL-2 cells is “sensitive”. The “clonogenic potential, MDA-MB-231” value with MDA-MB-231 cells was “strong decrease in proliferative capacity”. For the same molecule, the “clonogenic potential, ACHN” value in the assay on ACHN cells was “apparent increase in cell proliferation”. The “clonogenic potential, HUVEC” value in the assay with HUVEC is “limited or no effects”. Moreover, the “clonogenic potential, HDF” value in the assay with HDFs was “limited or no effects”.

Source of the values: PMC13144739, “Global analysis of cancer cell responses to USP9X inhibition” (The EMBO Journal, 2026).
